Measurements taken from patent US7531565B2, “Imidazolidin-2-one derivatives as selective androgen receptor modulators (SARMS)” (Janssen Pharmaceutica, N.V., priority 2004, dated 2009).

Columns and labels:
androgen receptor [1] = molecular target: T1, androgen receptor (Rattus norvegicus, UniProt P15207); assay: Androgen receptor binding using rat ventral prostate cytosol; parameters: Male Sprague Dawley or Wistar rats (Charles River, 200-300 g) were used for each preparation; from tissue; host or cells: ventral prostate cytosol of castrated male Sprague Dawley or Wistar rats
T1 sequence (P15207 1-902): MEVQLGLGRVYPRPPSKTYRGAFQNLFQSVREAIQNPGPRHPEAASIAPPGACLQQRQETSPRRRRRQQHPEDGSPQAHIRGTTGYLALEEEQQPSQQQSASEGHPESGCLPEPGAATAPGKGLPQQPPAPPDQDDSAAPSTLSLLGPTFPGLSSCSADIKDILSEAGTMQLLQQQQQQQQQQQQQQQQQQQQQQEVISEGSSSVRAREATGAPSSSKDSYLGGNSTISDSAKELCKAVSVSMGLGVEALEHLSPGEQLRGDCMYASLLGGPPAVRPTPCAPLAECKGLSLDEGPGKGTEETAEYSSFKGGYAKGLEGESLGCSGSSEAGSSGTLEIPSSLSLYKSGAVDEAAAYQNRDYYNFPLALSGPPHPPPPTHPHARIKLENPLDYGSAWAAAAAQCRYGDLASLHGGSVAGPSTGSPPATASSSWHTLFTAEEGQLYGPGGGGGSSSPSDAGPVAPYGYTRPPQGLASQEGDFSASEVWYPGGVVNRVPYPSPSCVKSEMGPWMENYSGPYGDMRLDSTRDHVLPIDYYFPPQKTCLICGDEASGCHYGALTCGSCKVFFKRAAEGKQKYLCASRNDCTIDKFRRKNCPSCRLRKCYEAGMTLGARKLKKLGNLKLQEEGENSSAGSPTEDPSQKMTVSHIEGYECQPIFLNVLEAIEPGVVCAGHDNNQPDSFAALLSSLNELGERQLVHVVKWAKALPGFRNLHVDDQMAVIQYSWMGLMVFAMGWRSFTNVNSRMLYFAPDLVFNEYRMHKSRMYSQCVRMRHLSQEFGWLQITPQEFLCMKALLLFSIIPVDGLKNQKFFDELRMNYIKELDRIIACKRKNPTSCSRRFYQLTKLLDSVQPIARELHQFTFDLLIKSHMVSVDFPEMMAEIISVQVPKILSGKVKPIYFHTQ

androgen receptor [2] = molecular target: T1, androgen receptor; assay: L929 androgen receptor functional assay, adenovirus transduction; assay type: cell-based; parameters: expressed in transfected cells; settings: 3 μM, L929 cells; for % Activition @ 3 μM: agonist testing (no R1881), luciferase
Description: L929 cells were plated in 96-well plates at 20,000 cells per well, in DMEM/F12 (GIBCO) containing 10% (v/v) charcoal-treated fetal bovine serum (Hyclone) and lacking phenol red. The plates were then incubated overnight at 37° C. in 5% (v/v) humidified CO2.
Test compound dilutions were prepared in 100% (v/v) DMSO, if necessary. Each dilution was made to 1250× the final desired assay concentration. First, 2 mL of DMEM/F12 lacking phenol red was pipetted into the wells of a 2-mL 96-well assay block. Next, 4 μL of the 1250× test compound dilutions were pipetted into each well of the assay block. The mixtures within the well were then carefully mixed by pipette.
In a 15 mL or 50 mL sterile centrifuge tube, a 2.5 nM (2.5×) dilution of R1881 (methyl-trienolone) in DMEM/F12 lacking phenol red was prepared. In a second 15 mL or 50 mL centrifuge tube a solution containing an equal volume of DMEM to the first and an equal volume of 100% (v/v) DMSO to the volume of R1881 used in the first tube was prepared.
In a 15 mL or 50 mL sterile centrifuge tube, a dilution in DMEM/F12 of the adenovirus AdEasy+rAR at an moi of 1:500 per well was prepared. The medium was removed from the 96-well plates by inversion and dried, inverted, very briefly. As soon as possible after medium removal, 40 μL of the diluted unlabeled test compound was added to each well, in duplicate. To each well designated for antagonist testing was added 40 μL of the 2.5 nM R1881 dilution to the wells for antagonist testing. To each well designated for agonist testing was added 40 μL of the DMSO dilution. Then 20 μL of the diluted adenovirus were added to all wells. The plates were incubated for 48 hours at 37° C. in 5% (v/v) humidified CO2.
To each well was added 100 μL of Steady-Glo luciferase assay substrate (Promega) and the plates were placed on a rotary shaker for 1 min. The plates were then incubated at room temperature in the dark for one hour. The contents of each well were then transferred to a white microtiter plate (Packard) and read on a Luminoskan Ascent (Thermo Lab Systems).
L929 AR percent activity was determined by testing dilutions of the test compound using a concentration of 3000 nM unless otherwise noted. L929 percent inhibition was determined by testing dilutions of the test compound using a concentration of 3000 nM. EC50s and IC50s were determined by testing serial dilutions of the test compound (usually duplicate ten half-log dilutions starting at 10 μM). Luciferase activity per well were measured and EC50s and IC50s determined by linear regression.
Representative compounds of the present invention were tested for functional activity at the androgen receptor according to the procedure described above with results as listed in Table 4.

[3] = test system: castrated male Sprague Dawley rats; assay: Ventral prostate and seminal vesicle weight in vivo assay; parameters: species or system rat; key: A test compound was said to be “active” if the non weight adjusted prostate weight was ≦60 mg or ≧84 mg; they are listed herein as “inactive” as they did not meet the specified criteria defined above; settings: immature castrated rats, once daily for five days, usually orally 40 mg/kg, with testosterone propionate 2 mg/kg s.c.
Description: Immature (approximately 50 g) castrated male Sprague Dawley rats (Charles River) were treated once daily for five days with test compound (usually given orally at 40 mg/kg in a volume of 0.3 mL, in 30% cyclodextrin or 0.5% methylcellulose vehicle) and with testosterone propionate (given subcutaneously by injection at the nape of the neck at 2 mg/kg, in a volume of 0.1 mL in sesame oil). On the sixth day, the rats were euthanized by asphyxiation in carbon dioxide. Ventral prosatates and seminal vesicles were removed and their wet weights determined. Test compound activity was determined as the percent inhibition of testosterone-enhanced tissue weights, with a vehicle-treated control group set to zero percent and a testosterone alone-treated control group set to 100%.
A test compound was said to be “active” if the non weight adjusted prostate weight was ≦60 mg or ≧84 mg.

androgen receptor [4] = molecular target: T1, androgen receptor; assay: COS-7 whole-cell androgen receptor binding assay, adenovirus transduction; parameters: expressed in transfected cells; settings: 3 μM (3000 nM); COS-7 cells, [3H]R1881, AdEasy+rAR
Description: COS-7 cells were plated in 96-well plates at 20,000 cells per well, in a solution of DMEM/F12 (GIBCO) containing 10% (v/v) charcoal-treated fetal bovine serum (Hyclone) and lacking phenol red. The cells were then incubated overnight at 37° C. in 5% (v/v) humidified CO2.
Test compound solutions were prepared by diluting the test compound in 100% (v/v) DMSO, if necessary. Each dilution yielded a solution which was 625× the final desired test concentration.
Next, 1 mL of DMEM/F12 lacking phenol red was pipetted into each of the wells of a 2-mL 96-well assay block. Then 4 μL of the 625× test compound dilutions were pipetted into each well of the assay block. The wells were carefully mixed by pipette.
In a 15 mL or 50 mL sterile centrifuge tube, a 2.5 nM dilution of tritiated methyl-trienolone in DMEM/F12 lacking phenol red ([^3H]R1881; Perkin-Elmer) was prepared.
In a 15 mL or 50 mL sterile centrifuge tube, a dilution in DMEM/F12 of the adenovirus AdEasy+rAR at a moi of 1:50 per well was prepared.
The medium was removed from the 96-well plates by inversion and the plates dried very briefly, inverted, on a sterile towel. As soon as possible after medium removal, 40 μL of the diluted test compound was added to each well, in duplicate. To each well was then added 40 μL of the 2.5 nM [^3H]R1881 and 20 μL of the diluted adenovirus. The plates were then incubated for 48 hours at 37° C. in 5% (v/v) humidified CO2.
The medium was removed from the above incubated plates by inversion and dried. Each well was then washed with 0.35 mL of 1×PBS. The PBS was then removed from the plates by inversion and the plates dried.
To each well was then added 50 μL of 0.5% (v/v) Triton X-100 (Sigma) in 1×PBS and the plates placed on a rotary shaker for 5 min. The contents of each well were then transferred to an OptiPlate-96 (Packard) scintillation plate. To each well was then added 0.2 mL of Microscint-20 (Packard) and the wells counted on a TopCount (Packard).
Percent inhibition was determined by testing dilutions of the test compound (usually duplicates of 10 μM) in the binding assay. Counts per well were measured and percents of inhibition determined. Androgen receptor binding IC50s were determined by testing serial dilutions of the test compound (usually duplicate ten half-log dilutions starting at 10 μM) in the binding assay. Counts per well were measured and IC50s determined by linear regression.
Representative compounds of the present invention were tested for binding to the androgen receptor according to the procedure described above with results as listed in Table C. Unless otherwise noted, COS binding % inhibition was determined using a concentration of 3000 nM. For compounds tested more than once, each result is listed separately in Table 3 below.

[5] = antagonist testing with R1881, luciferase

Structure (SMILES)	% Inhibition @ 3 μM (androgen receptor [1]) [%]	% Activition @ 3 μM (androgen receptor [2]) [%]	% Inhibition @ 3 μM (androgen receptor [2]; [5]) [%]	active / inactive by non weight adjusted prostate weight [3]	% Inhibition @ 3 μM (androgen receptor [4]) [%]	inhibition at 3 µM (androgen receptor [1]) [%]	inhibition at 3 µM (androgen receptor [2]; antagonist testing with R1881, luciferase, read-out: % Inhibition @ 3 μM) [%]
CC1(C(=O)O)CN(c2ccc(C#N)c(C(F)(F)F)c2)C(=O)N1 (racemic) [Compound 5e]	−67	0	30	active	–	–	–
CC1(C(=O)Nc2ccc(Cl)c(C(F)(F)F)c2)CN(c2ccc(F)cc2)C(=O)N1 (racemic) [Compound 6f]	66	3	85	–	35	–	–
CC1(C(=O)Nc2ccc(C#N)c(C(F)(F)F)c2)CN(Cc2ccc(F)cc2)C(=O)N1 (racemic) [Compound 6i]	4	0	76	–	28	–	–
COC(=O)C1(C)CN(c2ccc(F)cc2)C(=O)N1 (stereo not shown) [Compound 4a, 1-(4-Fluoro-phenyl)-4-methyl-2-oxo-imidazolidine-4-carboxylic acid methyl ester]	–	0	–	inactive	–	-57	-20
